Reference: patent publication US20230355622A1, “METHODS OF CHEMOVACCINATION AGAINST PLASMODIUM INFECTIONS” (Merck Sharp & Dohme LLC, priority 2020, published 2023)

Assays:
parasite = assay: Parasite LDH growth assay (Parasite Assay), antiparasite potency; type: cell-based; conditions: 72 h, parasite LDH growth assay, ring stage parasites, 72 hours incubation at 37° C.; read-out: EC50
Method in brief: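 Growth was read by an LDH assay after a freeze–thaw cycle (−80 °C overnight, 4 h thaw at RT). Before that, parasites grew with compound for 72 h at 37 °C under gassed, humidified conditions. The input was a ring-stage culture adjusted to 0.7% parasitemia and 2% haematocrit in serum (5%)/albumax (0.5%)-supplemented RPMI-Hepes.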

PbmCherryLuci = assay: Prime/boost immunisation of C57BL/6 mice with Example 75A, mosquito bite challenge (FIG. 9); type: in vivo, Plasmodium berghei; conditions: female C57BL/6, prime/boost, 2 x 500 mg/kg P.O. at 36 and 48 h; 10 mosquito bites at 12 weeks after prime
Description: To investigate if chemoprophylaxis with Example 75A would serve as a chemovaccination as does Example IA, female C57BL/6 mice were immunized using a prime/boost regimen. The first immunisation was with 40,000 PbmCherryLuci salivary gland sporozoites i.v. followed by two doses of Example 75A at 500 mg/kg P.O. (given at 36 and 48 hours post infection). The second immunisation (boost) was six weeks later, this time with 20,000 PbmCherryLuci sporozoites but with Example 75A treatment as for the prime immunisation. Six weeks after the boost immunisation (twelve weeks after the prime immunisation) the immunised mice were challenged with the bites of 10 PbmCherryLuci infected mosquitoes for 15 minutes. Giemsa stained thin blood smears were analysed until day 30 for the presence of parasites in the blood and mice were considered to be protected from infection if no blood parasites were observed within the 30 days post mosquito bite challenge.

[1] = system: PbmCherryLuci sporozoites; assay: Inhibition of liver to blood transition in C57BL/6 mice (FIG. 8); type: in vivo, Plasmodium berghei
Description: 40,000 PbmCherryLuci sporozoites (or the indicated number of sporozoites) were inoculated i.v. and compounds were administered by oral gavage at indicated time points during liver infection. Liver infection levels and egress of parasites from the liver were measured by bioluminescence signal from the parasites using an In Vivo Imaging System (IVIS, Perkin Elmer) at the peak of liver infection (52 hours post infection, hpi), during liver egress (55 hpi) as well as during the first round of blood infection (65 hpi). Initiation of blood infection was also measured by flow cytometry at 65 hpi using the mCherry reporter to determine the parasitemia of this first round of blood infection. These analyses allowed quantification of the efficacy of drug killing of parasites in the liver (52 hpi), preventing their egress from the liver (55 hpi) or preventing their successful infection of the blood (65 hpi). Mice were monitored by giemsa stained thin blood smears for the presence of parasites in the blood for 30 days post infection. If no blood infection was seen during the subsequent 30 days, mice were declared cured of malaria infection.
C57BL/6 mice were administered Example 1A or Example 75A as described in the general experimental procedure.

PMIX [2] = assay: Autocatalytic processing of PMIX to p55; type: cell-based; conditions: P. falciparum parasite
Source text: The development of Example 1A as a PMIX/PMX dual inhibitor of the P. falciparum parasite has allowed for the analysis of the function of these aspartic acid proteases. To do this, PMIX was processed to a 55 kDa (p55) protein and this was not inhibited by E64.

PMIX [3] = assay: Cleavage of PMIX substrates RAP1 and ASP in parasite extracts; type: cell-based, P. falciparum
Description: To confirm that Example 1A was a dual inhibitor of PMIX and PMX function, the ability of this compound to inhibit cleavage of the known PMIX substrate Rhoptry Associated Protein 1 (RAPI) in parasite extracts was tested (Pino et al., 2017). RAP1 is a merozoite rhoptry protein that is localized to the parasitophorous vacuole after invasion and processed by both PMIX and SUB1 (Pino et al., 2017). […] RAP1 was not released into the parasite supernatant because it was deposited in the parasitophorous vacuole during the invasion process (Baldi, D., Andrews, K., Waller, R., Roos, D., Howard, R., Crabb, B. and Cowman, A. (2000)). RAP1 controls rhoptry targeting of RAP2 in the malaria parasite Plasmodium falciparum. Embo Journal 19, 2435-2443.

PMX = PMX (Plasmodium falciparum, UniProt Q8IAS0); set-up: endogenous in cells; conditions: negative control, literature (Salmon et al. 2001); cited from earlier work
PMX, sequence (Q8IAS0 222-573): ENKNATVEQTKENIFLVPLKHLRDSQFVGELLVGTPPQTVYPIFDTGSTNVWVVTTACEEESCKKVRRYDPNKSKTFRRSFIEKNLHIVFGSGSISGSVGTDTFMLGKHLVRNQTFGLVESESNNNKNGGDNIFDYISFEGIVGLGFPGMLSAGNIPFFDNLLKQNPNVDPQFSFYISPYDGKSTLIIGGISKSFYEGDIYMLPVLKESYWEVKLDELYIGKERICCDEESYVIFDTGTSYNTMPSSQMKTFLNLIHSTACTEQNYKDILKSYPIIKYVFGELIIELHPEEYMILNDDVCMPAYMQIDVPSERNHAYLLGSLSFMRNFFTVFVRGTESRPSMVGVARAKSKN

Q: What does the source list for CCC1(CC)CC(=O)N([C@H]2c3cc(C(=O)N[C@@H]4c5ccccc5C[C@H]4O)ccc3O[C@@]2(C)COC)C(=N)N1 [Example 75A, (2R,3S)-3-(4,4-diethyl-2-imino-6-oxotetrahydropyrimidin-1(2H)-yl)-N-((1R,2R)-2-hydroxy-2,3-dihydro-1H-inden-1-yl)-2-(methoxymethyl)-2-methyl-2,3-dihydrobenzofuran-5-carboxamide]?
A: EC50 (parasite): 0.4 nM; sterile protection from reinfection (PbmCherryLuci): 100%; mice protected ([1]; 300 mg/kg): 8 mice; mice protected ([1]; 500 mg/kg): 10/11; detection of parasites in the blood ([1]; lower doses (below 300 mg/kg)): large delays in the detection of parasites in the blood

Q: Which EC50 (parasite) does the source give for CCC1(CC)CC(=O)N([C@H]2c3cc(C(=O)N[C@H]4c5ccccc5C(F)(F)[C@@H]4O)ccc3O[C@@]2(C)COC)C(=N)N1 [Example 291, (2R,3S)-3-(4,4-diethyl-2-imino-6-oxo-hexahydropyrimidin-1-yl)-N-[(1S,2R)-3,3-difluoro-2-hydroxy-indan-1-yl]-2-(methoxymethyl)-2-methyl-3H-benzofuran-5-carboxamide] here?
A: 240 nM

Q: For CCC1(CC)CC(=O)N([C@@H]2c3cc(C(=O)N[C@@H]4c5ccccc5OC(C)(C)[C@H]4O)ccc3OC[C@@]2(C)OC)C(=N)N1 [Example 295, (3S,4R)-4-(4,4-diethyl-2-imino-6-oxo-hexahydropyrimidin-1-yl)-N-[(3S,4R)-3-hydroxy-2,2-dimethyl-chroman-4-yl]-3-methoxy-3-methyl-chromane-6-carboxamide], which EC50 (parasite) is on record?
A: 100 nM

Q: Which EC50 (parasite) does the source give for CCC1(CC)CC(=O)N([C@H]2c3cc(C(=O)N[C@@H]4c5ccccc5OC(C)(C)[C@H]4O)ccc3OC[C@]2(C)OC)C(=N)N1 [Example 296, (3R,4S)-4-(4,4-diethyl-2-imino-6-oxo-hexahydropyrimidin-1-yl)-N-[(3S,4R)-3-hydroxy-2,2-dimethyl-chroman-4-yl]-3-methoxy-3-methyl-chromane-6-carboxamide] here?
A: 0.3 nM

Q: For CCC1(CC)CC(=O)N([C@H]2c3cc(C(=O)N[C@@H]4c5ccccc5OC(C)(C)[C@H]4O)ccc3OC[C@H]2COC)C(=N)N1 [Example 298, (3R,4R)-4-(4,4-diethyl-2-imino-6-oxotetrahydropyrimidin-1(2H)-yl)-N-((3S,4R)-3-hydroxy-2,2-dimethylchroman-4-yl)-3-(methoxymethyl)chromane-6-carboxamide], which EC50 (parasite) is on record?
A: 0.5 nM

Q: Which EC50 (parasite) does the source give for CCC1(CC)CC(=O)N([C@H]2c3cc(C(=O)N[C@@H]4c5ccccc5OC(C)(C)[C@H]4O)ccc3OC[C@@H]2COC)C(=N)N1 [Example 299, (3S,4R)-4-(4,4-diethyl-2-imino-6-oxo-hexahydropyrimidin-1-yl)-N-[(3S,4R)-3-hydroxy-2,2-dimethyl-chroman-4-yl]-3-(methoxymethyl)chromane-6-carboxamide] here?
A: 0.8 nM

Q: For CC(C)C[C@H](NC(=O)[C@H]1O[C@@H]1C(=O)O)C(=O)NCCCCN=C(N)N [Example E64, reference compound], which “PMIX processing to 55 kDa (p55) protein” value (PMIX [2]) is on record?
A: not inhibited

Q: What about the “RAP1 processing by PMIX and SUB1” value (PMIX [3]; treated parasites/merozoites, processed forms p82 and p69, unprocessed p87) of the same molecule?
A: processed normally by PMIX and SUB1

Q: And the “Apical Sushi Protein (ASP) processing by PMIX” value (PMIX [3]; treated parasites, p47 processed, p87 full-length)?
A: processed into a 47 kDa polypeptide (p47)

Q: What about the SERA5 processing (PMX) of the same molecule?
A: does not affect SERA5 processing
